Among the test systems are SNB-75; OVCAR-4; Malme-3M; MDA-MB-435; DU-145; SF-539; SF-295; NCI-H460; LOX IMVI; HL-60; HT-29; CAKI-1; OVCAR-3; SK-MEL-2; M14; EKVX; CCRF-CEM; NCI-H23; RXF 393; HOP-92.
What all share (assay): inhibition of tumour cell growth, NCI panel, 48 h

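Where inhibition never reached the appropriate level, the endpoint shown equals the highest concentration tested. Otherwise, values were interpolated linearly from a five-concentration, 48-hour dose response in 96-well plates. At the GI50, growth is halved.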 Active and inactive are the calls of the source. No stated cut-off is given here; in the data, active = GI50 up to about 1.1 µM and inactive = higher.

On to `Nn1c(Cc2ccccc2)n[nH]c1=O`, for which the GI50 in the test on SNB-75 is > 100 µM (inactive); with OVCAR-4 it was > 100 µM (inactive); in the test with Malme-3M, 37.2 µM (inactive); with MDA-MB-435 it was > 100 µM (inactive); in the test with DU-145 it was > 100 µM (inactive); in the test on SF-539, > 100 µM (inactive). Besides, the GI50 with SF-295 was > 100 µM (inactive); in the test on NCI-H460, > 10 µM (inactive); in the test with LOX IMVI, > 100 µM (inactive); in the test with HL-60, > 100 µM (inactive); in the test with HT-29, > 100 µM (inactive); with CAKI-1, > 100 µM (inactive). The GI50 in the test with OVCAR-3, in the test with SK-MEL-2, in the test on M14, in the test on EKVX, in the test with CCRF-CEM and with NCI-H23 was > 100 µM (inactive) in each case.
`CCOC(=O)C1(Cc2ccccc2)Cc2cc3c(cc2C1)CCC3`: the GI50 is > 10 µM (inactive) in the test with SNB-75; 35.7 µM (inactive) with OVCAR-4; 29.6 µM (inactive) in the test on Malme-3M; 30.2 µM (inactive) with MDA-MB-435; 44.6 µM (inactive) with DU-145; 39 µM (inactive) in the test on SF-539. For the same molecule, the GI50 with SF-295 is 29.4 µM (inactive); in the test with NCI-H460 it was 31.3 µM (inactive); with LOX IMVI, 18.8 µM (inactive); in the test on HL-60 it was 23.8 µM (inactive); with HT-29 it was 18.4 µM (inactive); in the test with CAKI-1 it was 39.5 µM (inactive). Moreover, the GI50 in the test with OVCAR-3 was 41.1 µM (inactive); in the test on SK-MEL-2, 12.8 µM (inactive); in the test on M14, 29.5 µM (inactive); in the test with EKVX, 42.8 µM (inactive); in the test with CCRF-CEM it was 16.5 µM (inactive); in the test with NCI-H23, 27 µM (inactive).
Turning to `NNC(=O)c1ccccc1Nc1ccccc1C(=O)NN`, the GI50 with SNB-75, in the test on OVCAR-4, with Malme-3M, with MDA-MB-435, in the test on DU-145 and in the test with SF-539 was > 100 µM (inactive) in each case. Further, the GI50 in the test with SF-295, with NCI-H460, with LOX IMVI, in the test on HL-60, in the test on RXF 393 and in the test with HT-29 was > 100 µM (inactive) each time. Further, the GI50 in the test with CAKI-1, in the test on OVCAR-3, with SK-MEL-2, in the test with M14, in the test on EKVX and in the test on CCRF-CEM was > 100 µM (inactive) throughout. Besides, the GI50 in the test on NCI-H23 was > 100 µM (inactive).
Turning to `NS(=O)(=O)c1cccc(NC(=S)NC(=O)Nc2ccc(Cl)c(Cl)c2)c1`, the GI50 was 18.3 µM (inactive) with SNB-75; 24 µM (inactive) in the test with HOP-92; 22.2 µM (inactive) in the test with OVCAR-4; 11.5 µM (inactive) in the test with Malme-3M; 30.1 µM (inactive) with DU-145; 20 µM (inactive) with SF-539. The GI50 with SF-295 is 22.6 µM (inactive); in the test on NCI-H460, 16.7 µM (inactive); in the test on LOX IMVI, 16.7 µM (inactive); in the test with RXF 393, 22.8 µM (inactive); in the test with HT-29, 25.9 µM (inactive); in the test with SK-MEL-2, 23.2 µM (inactive). Moreover, the GI50 in the test with M14 was 14.2 µM (inactive); in the test with CCRF-CEM it was 30.2 µM (inactive); in the test on NCI-H23, 15.8 µM (inactive).
For the molecule `CC(C)=CCC[C@]1(C)C=Cc2c(O)c3c(c(CC=C(C)C)c2O1)O[C@]12C(=C[C@@H]4CC1C(C)(C)O[C@@]2(C/C=C(/C)C(=O)O)C4=O)C3=O`, the GI50 in the test with SNB-75 was 1.63 µM (inactive); in the test on HOP-92, 1.78 µM (inactive); in the test with OVCAR-4, 2.38 µM (inactive); with Malme-3M, 1.19 µM (inactive); in the test with MDA-MB-435, 1.03 µM (active); in the test on SF-539, 0.206 µM (active). Besides, the GI50 with SF-295 was 2.3 µM (inactive); in the test with NCI-H460, 1.24 µM (inactive); in the test on LOX IMVI, 0.442 µM (active); in the test with HL-60, 0.285 µM (active); in the test on RXF 393 it was 0.5 µM (active); in the test on HT-29, 0.461 µM (active). The GI50 in the test on CAKI-1 was 0.973 µM (active); with OVCAR-3, 1.38 µM (inactive); in the test with SK-MEL-2 it was 2.02 µM (inactive); in the test on M14 it was 1.57 µM (inactive); in the test with EKVX, 1.67 µM (inactive); with CCRF-CEM, 0.273 µM (active). Besides, the GI50 in the test on NCI-H23 is 0.938 µM (active).
Regarding `C=C(C)C12CC(COC(=O)c3ccccc3)C34OC5(OC1C3C1OC1(CO)C(O)C1(O)C(OC(=O)c3ccccc3)C(C)C(C(C)CCCCCCC5O)C14)O2` (centres undefined), the GI50 in the test with SNB-75 is > 82.8 µM (inactive); in the test on HOP-92, > 100 µM (inactive); with OVCAR-4, > 100 µM (inactive); in the test on Malme-3M, 25.2 µM (inactive); in the test on DU-145, 53.8 µM (inactive); with SF-539 it was > 70.3 µM (inactive). Besides, the GI50 in the test on SF-295 is 31.2 µM (inactive); with NCI-H460, 33.6 µM (inactive); in the test on LOX IMVI, 66.5 µM (inactive); with RXF 393 it was 52.6 µM (inactive); in the test with HT-29 it was 19.5 µM (inactive); with CAKI-1, 56.5 µM (inactive). The GI50 with OVCAR-3 is 63 µM (inactive); in the test with SK-MEL-2, > 100 µM (inactive); with M14, 27.2 µM (inactive); with EKVX it was 58.6 µM (inactive); in the test with CCRF-CEM, 26.4 µM (inactive); in the test on NCI-H23 it was 56.2 µM (inactive).
As for `Cc1cc(C)nc(NC(=S)Nc2ccccc2Cl)c1`, the GI50 is 73.1 µM (inactive) in the test on SNB-75; > 100 µM (inactive) in the test with OVCAR-4; > 100 µM (inactive) in the test with Malme-3M; > 100 µM (inactive) in the test with MDA-MB-435; > 100 µM (inactive) in the test with DU-145; > 100 µM (inactive) with SF-539. The GI50 in the test with SF-295, in the test on NCI-H460, with LOX IMVI, with HL-60, with RXF 393 and in the test on HT-29 was > 100 µM (inactive) each time. For the same molecule, the GI50 in the test with CAKI-1, with OVCAR-3, with SK-MEL-2, with M14, in the test on EKVX and in the test on CCRF-CEM was > 100 µM (inactive) each time.
As to `CN(/N=C/c1ccnc2ccccc12)c1ccc([N+](=O)[O-])cc1[N+](=O)[O-]`, the GI50 in the test with SNB-75 was 20.7 µM (inactive); in the test with HOP-92, 46.9 µM (inactive); in the test on OVCAR-4, > 100 µM (inactive); with Malme-3M it was 61 µM (inactive); in the test on SF-539 it was 89.5 µM (inactive); with SF-295, 37.3 µM (inactive). Also, the GI50 in the test with NCI-H460 was > 100 µM (inactive); in the test with LOX IMVI it was 81.7 µM (inactive); with HL-60, > 100 µM (inactive); in the test with RXF 393, 41.8 µM (inactive); in the test with HT-29, > 100 µM (inactive); in the test on CAKI-1, > 100 µM (inactive). Also, the GI50 was 19.7 µM (inactive) in the test with OVCAR-3; 28.6 µM (inactive) in the test with SK-MEL-2; > 100 µM (inactive) in the test with M14; > 100 µM (inactive) in the test on EKVX; > 100 µM (inactive) in the test on CCRF-CEM; 91.6 µM (inactive) in the test on NCI-H23.
Take `CCN(CC)c1ccc(C2Nc3ccc4ccccc4c3C3=C2C(=O)CCC3)cc1` (centres undefined): the GI50 is 17.3 µM (inactive) with SNB-75; 14.9 µM (inactive) with OVCAR-4; > 100 µM (inactive) in the test on Malme-3M; 54.6 µM (inactive) with MDA-MB-435; 23.9 µM (inactive) in the test on DU-145; 13.1 µM (inactive) with SF-539. The GI50 in the test on SF-295 was 24.6 µM (inactive); with NCI-H460, > 100 µM (inactive); in the test with RXF 393 it was 17.3 µM (inactive); in the test with HT-29, 55.7 µM (inactive); with CAKI-1, 33.7 µM (inactive); in the test on OVCAR-3, 16.4 µM (inactive). Also, the GI50 in the test on SK-MEL-2 is 35.5 µM (inactive); in the test with M14, > 100 µM (inactive); with EKVX it was > 100 µM (inactive); in the test with CCRF-CEM, > 100 µM (inactive); in the test on NCI-H23, 75 µM (inactive).
Regarding `CNC(=S)NN=C1NCCCCN1`, the GI50 in the test with SNB-75, with HOP-92, in the test with OVCAR-4, in the test on Malme-3M, in the test on MDA-MB-435 and with SF-539 was > 100 µM (inactive) each time. Moreover, the GI50 with SF-295, in the test with NCI-H460, in the test on LOX IMVI, in the test with HL-60, in the test on RXF 393 and in the test with HT-29 was > 100 µM (inactive) each time. The GI50 is 29.2 µM (inactive) in the test on CAKI-1; > 100 µM (inactive) with OVCAR-3; > 100 µM (inactive) with SK-MEL-2; > 100 µM (inactive) in the test with M14; > 100 µM (inactive) with EKVX; > 100 µM (inactive) with CCRF-CEM. Besides, the GI50 with NCI-H23 was > 100 µM (inactive).
Take `CC/C(=C/OC)P1(=O)OC(C)(C)CN1C(C)(C)C` (centres undefined): the GI50 with OVCAR-4, in the test with Malme-3M, in the test with MDA-MB-435, in the test on DU-145, in the test with SF-539 and in the test on SF-295 was > 100 µM (inactive) throughout. For the same molecule, the GI50 in the test with NCI-H460, in the test with LOX IMVI, with HT-29, with CAKI-1, with OVCAR-3 and with SK-MEL-2 was > 100 µM (inactive) throughout. For the same molecule, the GI50 in the test on M14, with EKVX and in the test with NCI-H23 was > 100 µM (inactive) throughout.
